Columns and labels:
PI3Kα = biological target: T1, PI3Kα (Mus musculus, UniProt P42337); assay: PI3Ks isoform in cell EC50 assay (AKT phosphorylation, Western Blotting); assay type: cell-based; conditions: NIH-3T3, 20ng/ml PDGF-BB, read-out: cellular EC50 PI3K Alpha
T1 construct: endogenous in cells; host or cells: NIH-3T3

AURKB = biological target: T2, AURKB (Homo sapiens, UniProt Q96GD4); assay: KinomeScan; assay type: binding; conditions: 1uM
T2 construct: purchased DiscoveRx KINOMEscan

FLT3-autoinhibited = biological target: T3, FLT3-autoinhibited (Homo sapiens, UniProt P36888); assay: KinomeScan; assay type: binding; conditions: 1uM
T3 construct: purchased DiscoveRx KINOMEscan

[1] = biological target: T4, RPS6KA4(Kin.Dom.1-N-terminal) (Homo sapiens, UniProt O75676); assay: KinomeScan; assay type: binding; conditions: 1uM
T4 construct: RPS6KA4(Kin.Dom.1-N-terminal); purchased DiscoveRx KINOMEscan

TNK1 = biological target: T5, TNK1 (Homo sapiens, UniProt Q13470); assay: KinomeScan; assay type: binding; conditions: 1uM
T5 construct: purchased DiscoveRx KINOMEscan
T5 sequence (Q13470 whole entry): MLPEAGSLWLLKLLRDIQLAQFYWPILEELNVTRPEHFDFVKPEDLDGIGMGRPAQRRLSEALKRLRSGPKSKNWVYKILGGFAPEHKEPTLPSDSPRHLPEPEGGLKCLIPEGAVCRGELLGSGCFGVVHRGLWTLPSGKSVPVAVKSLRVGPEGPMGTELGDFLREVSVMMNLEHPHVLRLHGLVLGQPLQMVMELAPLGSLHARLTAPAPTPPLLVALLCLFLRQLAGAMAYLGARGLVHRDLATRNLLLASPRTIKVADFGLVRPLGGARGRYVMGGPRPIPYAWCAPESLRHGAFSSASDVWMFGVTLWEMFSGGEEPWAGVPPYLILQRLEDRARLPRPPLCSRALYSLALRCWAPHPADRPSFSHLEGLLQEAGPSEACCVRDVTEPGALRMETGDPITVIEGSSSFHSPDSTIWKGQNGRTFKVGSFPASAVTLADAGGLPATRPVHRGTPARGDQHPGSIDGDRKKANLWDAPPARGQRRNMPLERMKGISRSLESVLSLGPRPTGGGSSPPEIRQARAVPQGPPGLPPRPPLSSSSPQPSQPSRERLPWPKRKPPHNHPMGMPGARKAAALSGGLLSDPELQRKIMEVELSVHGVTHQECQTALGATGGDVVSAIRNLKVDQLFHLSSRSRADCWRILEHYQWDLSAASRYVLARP

LRRK2(G2019S) = biological target: T6, LRRK2(G2019S) (Homo sapiens, UniProt Q5S007, G2019S); assay: KinomeScan; assay type: binding; conditions: 1uM
T6 construct: purchased DiscoveRx KINOMEscan

BTK = biological target: T7, BTK (Homo sapiens, UniProt Q06187); assay: KinomeScan; assay type: binding; conditions: 1uM
T7 construct: purchased DiscoveRx KINOMEscan

MARK4 = biological target: T8, MARK4 (Homo sapiens, UniProt Q96L34); assay: KinomeScan; assay type: binding; conditions: 1uM
T8 construct: purchased DiscoveRx KINOMEscan

IRAK3 = biological target: T9, IRAK3 (Homo sapiens, UniProt Q9Y616); assay: KinomeScan; assay type: binding; conditions: 1uM
T9 construct: purchased DiscoveRx KINOMEscan
T9 sequence (Q9Y616 whole entry): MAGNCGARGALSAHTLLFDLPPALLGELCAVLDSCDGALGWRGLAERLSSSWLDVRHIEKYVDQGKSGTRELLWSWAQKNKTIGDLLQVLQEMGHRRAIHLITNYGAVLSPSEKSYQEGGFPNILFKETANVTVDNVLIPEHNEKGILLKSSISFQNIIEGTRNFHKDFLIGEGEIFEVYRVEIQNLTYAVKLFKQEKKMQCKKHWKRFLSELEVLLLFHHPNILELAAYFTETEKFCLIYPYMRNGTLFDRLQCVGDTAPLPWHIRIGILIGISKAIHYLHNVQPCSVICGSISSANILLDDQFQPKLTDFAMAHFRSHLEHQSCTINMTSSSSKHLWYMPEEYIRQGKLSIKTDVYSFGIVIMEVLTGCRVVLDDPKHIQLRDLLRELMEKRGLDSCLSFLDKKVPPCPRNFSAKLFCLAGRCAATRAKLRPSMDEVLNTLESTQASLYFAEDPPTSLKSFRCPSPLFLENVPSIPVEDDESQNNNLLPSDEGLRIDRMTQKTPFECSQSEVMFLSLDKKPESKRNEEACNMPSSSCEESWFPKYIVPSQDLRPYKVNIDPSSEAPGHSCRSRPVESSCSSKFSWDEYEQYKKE

CAMK1G = biological target: T10, CAMK1G (Homo sapiens, UniProt Q96NX5); assay: KinomeScan; assay type: binding; conditions: 1uM
T10 construct: purchased DiscoveRx KINOMEscan

JNK3 = biological target: T11, JNK3 (Homo sapiens, UniProt P53779); assay: KinomeScan; assay type: binding; conditions: 1uM
T11 construct: purchased DiscoveRx KINOMEscan

[2] = biological target: T12, RSK4(Kin.Dom.1-N-terminal) (Homo sapiens, UniProt Q9UK32); assay: KinomeScan; assay type: binding; conditions: 1uM
T12 construct: RSK4(Kin.Dom.1-N-terminal); purchased DiscoveRx KINOMEscan

ASK1 = biological target: T13, ASK1 (Homo sapiens, UniProt Q99683); assay: KinomeScan; assay type: binding; conditions: 1uM
T13 construct: purchased DiscoveRx KINOMEscan

PDGFRA = biological target: T14, PDGFRA (Homo sapiens, UniProt P16234); assay: KinomeScan; assay type: binding; conditions: 1uM
T14 construct: purchased DiscoveRx KINOMEscan

DCAMKL1 = biological target: T15, DCAMKL1 (Homo sapiens, UniProt O15075); assay: KinomeScan; assay type: binding; conditions: 1uM
T15 construct: purchased DiscoveRx KINOMEscan

CSNK1G3 = biological target: T16, CSNK1G3 (Homo sapiens, UniProt Q9Y6M4); assay: KinomeScan; assay type: binding; conditions: 1uM
T16 construct: purchased DiscoveRx KINOMEscan

MEK6 = biological target: T17, MEK6 (Homo sapiens, UniProt P52564); assay: KinomeScan; assay type: binding; conditions: 1uM
T17 construct: purchased DiscoveRx KINOMEscan

CAMK2A = biological target: T18, CAMK2A (Homo sapiens, UniProt Q9UQM7); assay: KinomeScan; assay type: binding; conditions: 1uM
T18 construct: purchased DiscoveRx KINOMEscan

PIK3CA(C420R) = biological target: T19, PIK3CA(C420R) (Homo sapiens, UniProt P42336, C420R); assay: KinomeScan; assay type: binding; conditions: 1uM
T19 construct: purchased DiscoveRx KINOMEscan

PFTK1 = biological target: T20, PFTK1 (Homo sapiens, UniProt O94921); assay: KinomeScan; assay type: binding; conditions: 1uM
T20 construct: purchased DiscoveRx KINOMEscan

PRKCH = biological target: T21, PRKCH (Homo sapiens, UniProt P24723); assay: KinomeScan; assay type: binding; conditions: 1uM
T21 construct: purchased DiscoveRx KINOMEscan

INSR = biological target: T22, INSR (Homo sapiens, UniProt P06213); assay: KinomeScan; assay type: binding; conditions: 1uM
T22 construct: purchased DiscoveRx KINOMEscan

p38-beta = biological target: T23, p38-beta (Homo sapiens, UniProt Q15759); assay: KinomeScan; assay type: binding; conditions: 1uM
T23 construct: purchased DiscoveRx KINOMEscan

CDK4-cyclinD1 = biological target: T24, CDK4-cyclinD1 (Homo sapiens, UniProt P11802); assay: KinomeScan; assay type: binding; conditions: 1uM
T24 construct: purchased DiscoveRx KINOMEscan

ERK5 = biological target: T25, ERK5 (Homo sapiens, UniProt Q13164); assay: KinomeScan; assay type: binding; conditions: 1uM
T25 construct: purchased DiscoveRx KINOMEscan

AXL = biological target: T26, AXL (Homo sapiens, UniProt P30530); assay: KinomeScan; assay type: binding; conditions: 1uM
T26 construct: purchased DiscoveRx KINOMEscan
T26 sequence (P30530 26-894): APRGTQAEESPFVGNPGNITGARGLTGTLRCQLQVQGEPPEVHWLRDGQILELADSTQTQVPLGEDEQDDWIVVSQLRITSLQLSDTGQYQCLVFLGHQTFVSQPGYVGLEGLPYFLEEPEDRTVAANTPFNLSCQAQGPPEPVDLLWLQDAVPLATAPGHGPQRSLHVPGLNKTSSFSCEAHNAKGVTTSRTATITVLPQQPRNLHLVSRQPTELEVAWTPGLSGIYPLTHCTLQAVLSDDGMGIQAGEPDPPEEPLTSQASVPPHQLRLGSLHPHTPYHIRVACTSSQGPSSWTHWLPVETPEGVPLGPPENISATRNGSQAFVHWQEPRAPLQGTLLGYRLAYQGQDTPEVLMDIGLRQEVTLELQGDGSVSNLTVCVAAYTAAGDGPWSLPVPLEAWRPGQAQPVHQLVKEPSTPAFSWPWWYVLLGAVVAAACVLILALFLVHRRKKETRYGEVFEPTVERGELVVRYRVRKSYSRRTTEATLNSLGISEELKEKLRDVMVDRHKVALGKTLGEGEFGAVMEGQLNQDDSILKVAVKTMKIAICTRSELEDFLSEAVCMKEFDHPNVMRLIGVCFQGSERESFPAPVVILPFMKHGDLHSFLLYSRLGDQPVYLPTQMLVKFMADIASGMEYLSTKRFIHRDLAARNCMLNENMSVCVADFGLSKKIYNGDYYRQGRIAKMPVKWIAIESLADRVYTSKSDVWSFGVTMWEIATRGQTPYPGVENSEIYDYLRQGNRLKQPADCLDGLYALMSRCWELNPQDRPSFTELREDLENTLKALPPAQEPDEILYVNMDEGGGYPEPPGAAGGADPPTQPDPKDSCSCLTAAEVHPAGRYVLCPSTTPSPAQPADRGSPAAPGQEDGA

PYK2 = biological target: T27, PYK2 (Homo sapiens, UniProt Q14289); assay: KinomeScan; assay type: binding; conditions: 1uM
T27 construct: purchased DiscoveRx KINOMEscan

DCAMKL3 = biological target: T28, DCAMKL3 (Homo sapiens, UniProt Q9C098); assay: KinomeScan; assay type: binding; conditions: 1uM
T28 construct: purchased DiscoveRx KINOMEscan

CDK3 = biological target: T29, CDK3 (Homo sapiens, UniProt Q00526); assay: KinomeScan; assay type: binding; conditions: 1uM
T29 construct: purchased DiscoveRx KINOMEscan

LATS1 = biological target: T30, LATS1 (Homo sapiens, UniProt O95835); assay: KinomeScan; assay type: binding; conditions: 1uM
T30 construct: purchased DiscoveRx KINOMEscan

CIT = biological target: T31, CIT (Homo sapiens, UniProt O14578); assay: KinomeScan; assay type: binding; conditions: 1uM
T31 construct: purchased DiscoveRx KINOMEscan
T31 sequence (O14578 whole entry): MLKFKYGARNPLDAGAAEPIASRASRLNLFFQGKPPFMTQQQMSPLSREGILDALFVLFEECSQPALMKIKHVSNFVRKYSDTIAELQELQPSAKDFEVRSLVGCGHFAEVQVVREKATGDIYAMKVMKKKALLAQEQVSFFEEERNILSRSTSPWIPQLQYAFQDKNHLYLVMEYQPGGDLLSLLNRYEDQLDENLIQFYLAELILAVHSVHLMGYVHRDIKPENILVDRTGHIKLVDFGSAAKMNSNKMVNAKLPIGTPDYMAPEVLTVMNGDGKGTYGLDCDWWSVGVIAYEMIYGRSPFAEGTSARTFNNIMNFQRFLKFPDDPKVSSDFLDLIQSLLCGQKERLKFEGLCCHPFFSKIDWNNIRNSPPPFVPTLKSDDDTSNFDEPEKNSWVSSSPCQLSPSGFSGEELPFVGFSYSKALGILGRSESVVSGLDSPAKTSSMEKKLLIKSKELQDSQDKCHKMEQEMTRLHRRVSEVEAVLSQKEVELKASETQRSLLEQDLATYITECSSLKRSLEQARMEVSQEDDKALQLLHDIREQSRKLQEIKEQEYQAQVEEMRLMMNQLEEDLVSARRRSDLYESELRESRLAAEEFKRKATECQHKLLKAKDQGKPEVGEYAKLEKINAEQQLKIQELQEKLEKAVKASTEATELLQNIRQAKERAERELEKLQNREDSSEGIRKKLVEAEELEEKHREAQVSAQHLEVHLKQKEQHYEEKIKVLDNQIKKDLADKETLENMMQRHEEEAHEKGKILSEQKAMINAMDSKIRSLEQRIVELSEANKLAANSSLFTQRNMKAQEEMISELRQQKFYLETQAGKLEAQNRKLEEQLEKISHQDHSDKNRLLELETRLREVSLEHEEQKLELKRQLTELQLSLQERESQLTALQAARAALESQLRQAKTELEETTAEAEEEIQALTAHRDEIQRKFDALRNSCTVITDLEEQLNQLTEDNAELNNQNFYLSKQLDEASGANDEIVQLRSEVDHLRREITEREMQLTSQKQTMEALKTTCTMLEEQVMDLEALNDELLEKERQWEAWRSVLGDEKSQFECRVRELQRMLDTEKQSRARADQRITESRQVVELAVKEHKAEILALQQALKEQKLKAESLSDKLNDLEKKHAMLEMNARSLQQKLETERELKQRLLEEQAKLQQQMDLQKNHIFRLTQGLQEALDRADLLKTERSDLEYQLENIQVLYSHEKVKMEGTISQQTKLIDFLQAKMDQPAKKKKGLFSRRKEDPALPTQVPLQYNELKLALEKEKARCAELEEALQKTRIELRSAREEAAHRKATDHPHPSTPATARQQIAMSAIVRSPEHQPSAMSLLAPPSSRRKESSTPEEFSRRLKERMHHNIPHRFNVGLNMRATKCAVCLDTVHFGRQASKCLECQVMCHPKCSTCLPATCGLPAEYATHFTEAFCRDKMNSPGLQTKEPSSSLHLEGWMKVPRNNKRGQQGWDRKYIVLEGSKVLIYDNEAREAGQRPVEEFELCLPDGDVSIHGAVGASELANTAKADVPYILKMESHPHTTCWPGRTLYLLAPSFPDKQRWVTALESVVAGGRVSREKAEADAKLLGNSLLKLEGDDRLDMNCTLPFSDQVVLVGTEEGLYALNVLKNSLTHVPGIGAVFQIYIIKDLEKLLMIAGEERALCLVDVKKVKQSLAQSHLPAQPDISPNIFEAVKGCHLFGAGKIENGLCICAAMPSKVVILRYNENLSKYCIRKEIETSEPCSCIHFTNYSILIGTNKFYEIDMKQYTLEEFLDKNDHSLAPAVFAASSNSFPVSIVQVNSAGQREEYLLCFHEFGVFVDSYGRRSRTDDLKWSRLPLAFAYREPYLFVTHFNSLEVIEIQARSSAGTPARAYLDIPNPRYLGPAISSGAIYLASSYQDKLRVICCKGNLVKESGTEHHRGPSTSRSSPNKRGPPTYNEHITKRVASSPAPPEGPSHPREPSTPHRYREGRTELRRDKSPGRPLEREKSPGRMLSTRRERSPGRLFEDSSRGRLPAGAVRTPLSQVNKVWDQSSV

PRKCI = biological target: T32, PRKCI (Homo sapiens, UniProt P41743); assay: KinomeScan; assay type: binding; conditions: 1uM
T32 construct: purchased DiscoveRx KINOMEscan
T32 sequence (P41743 whole entry): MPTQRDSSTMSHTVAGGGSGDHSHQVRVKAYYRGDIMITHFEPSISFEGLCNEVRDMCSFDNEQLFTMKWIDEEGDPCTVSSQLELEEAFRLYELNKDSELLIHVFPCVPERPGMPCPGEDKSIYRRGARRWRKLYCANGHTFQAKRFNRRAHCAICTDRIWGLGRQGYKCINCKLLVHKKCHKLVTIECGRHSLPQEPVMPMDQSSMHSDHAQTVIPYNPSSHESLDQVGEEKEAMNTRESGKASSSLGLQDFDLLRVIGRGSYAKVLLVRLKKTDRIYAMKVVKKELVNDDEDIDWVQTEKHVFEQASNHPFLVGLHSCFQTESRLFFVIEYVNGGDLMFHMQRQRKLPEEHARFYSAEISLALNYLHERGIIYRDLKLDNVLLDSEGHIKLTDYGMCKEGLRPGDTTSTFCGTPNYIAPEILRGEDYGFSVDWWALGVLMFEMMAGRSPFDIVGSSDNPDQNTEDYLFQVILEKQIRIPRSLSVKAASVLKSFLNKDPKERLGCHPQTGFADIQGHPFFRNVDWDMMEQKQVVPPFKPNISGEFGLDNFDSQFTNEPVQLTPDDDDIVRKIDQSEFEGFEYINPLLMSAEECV

PRKD2 = biological target: T33, PRKD2 (Homo sapiens, UniProt Q9BZL6); assay: KinomeScan; assay type: binding; conditions: 1uM
T33 construct: purchased DiscoveRx KINOMEscan

TSSK1B = biological target: T34, TSSK1B (Homo sapiens, UniProt Q9BXA7); assay: KinomeScan; assay type: binding; conditions: 1uM
T34 construct: purchased DiscoveRx KINOMEscan

[3] = biological target: T35, JAK1(JH1domain-catalytic) (Homo sapiens, UniProt P23458); assay: KinomeScan; assay type: binding; conditions: 1uM
T35 construct: JAK1(JH1domain-catalytic); purchased DiscoveRx KINOMEscan

CSNK2A1 = biological target: T36, CSNK2A1 (Homo sapiens, UniProt P68400); assay: KinomeScan; assay type: binding; conditions: 1uM
T36 construct: purchased DiscoveRx KINOMEscan

CAMK1D = biological target: T37, CAMK1D (Homo sapiens, UniProt Q8IU85); assay: KinomeScan; assay type: binding; conditions: 1uM
T37 construct: purchased DiscoveRx KINOMEscan

GCN2(Kin.Dom.2,S808G) = biological target: T38, GCN2(Kin.Dom.2,S808G) (Homo sapiens, UniProt Q9P2K8, S808G); assay: KinomeScan; assay type: binding; conditions: 1uM
T38 construct: GCN2(Kin.Dom.2,S808G); purchased DiscoveRx KINOMEscan

NEK2 = biological target: T39, NEK2 (Homo sapiens, UniProt P51955); assay: KinomeScan; assay type: binding; conditions: 1uM
T39 construct: purchased DiscoveRx KINOMEscan

BMPR1B = biological target: T40, BMPR1B (Homo sapiens, UniProt O00238); assay: KinomeScan; assay type: binding; conditions: 1uM
T40 construct: purchased DiscoveRx KINOMEscan

AURKC = biological target: T41, AURKC (Homo sapiens, UniProt Q9UQB9); assay: KinomeScan; assay type: binding; conditions: 1uM
T41 construct: purchased DiscoveRx KINOMEscan
T41 sequence (Q9UQB9 whole entry): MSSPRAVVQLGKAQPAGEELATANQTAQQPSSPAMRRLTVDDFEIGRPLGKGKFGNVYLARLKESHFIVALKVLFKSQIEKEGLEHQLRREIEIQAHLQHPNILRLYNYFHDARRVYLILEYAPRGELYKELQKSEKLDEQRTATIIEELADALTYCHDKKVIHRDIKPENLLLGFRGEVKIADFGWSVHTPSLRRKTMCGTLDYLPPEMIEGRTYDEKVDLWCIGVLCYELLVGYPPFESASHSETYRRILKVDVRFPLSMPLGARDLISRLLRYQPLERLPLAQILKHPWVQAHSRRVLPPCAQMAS

Cc1nc(NC(=O)[C@@H](N)C(C)C)sc1-c1cnc(Cl)c(NS(=O)(=O)c2ccccc2)c1 [PI3KD-IN-015]
EC50 (PI3Kα): > 3 µM | KinomeScan AURKB (AURKB): 100 | KinomeScan FLT3-autoinhibited (FLT3-autoinhibited): 100 | KinomeScan RPS6KA4(Kin.Dom.1-N-terminal) [1]: 86 | KinomeScan TNK1 (TNK1): 100 | KinomeScan LRRK2(G2019S) (LRRK2(G2019S)): 100 | KinomeScan BTK (BTK): 81 | KinomeScan MARK4 (MARK4): 100 | KinomeScan IRAK3 (IRAK3): 100 | KinomeScan CAMK1G (CAMK1G): 94 | KinomeScan JNK3 (JNK3): 100 | KinomeScan RSK4(Kin.Dom.1-N-terminal) [2]: 100 | KinomeScan ASK1 (ASK1): 88 | KinomeScan PDGFRA (PDGFRA): 94 | KinomeScan DCAMKL1 (DCAMKL1): 61 | KinomeScan CSNK1G3 (CSNK1G3): 96 | KinomeScan MEK6 (MEK6): 100 | KinomeScan CAMK2A (CAMK2A): 94 | KinomeScan PIK3CA(C420R) (PIK3CA(C420R)): 4.5 | KinomeScan PFTK1 (PFTK1): 100 | KinomeScan PRKCH (PRKCH): 100 | KinomeScan INSR (INSR): 74 | KinomeScan p38-beta (p38-beta): 86 | KinomeScan CDK4-cyclinD1 (CDK4-cyclinD1): 90 | KinomeScan ERK5 (ERK5): 100 | KinomeScan AXL (AXL): 97 | KinomeScan PYK2 (PYK2): 95 | KinomeScan DCAMKL3 (DCAMKL3): 100 | KinomeScan CDK3 (CDK3): 100 | KinomeScan LATS1 (LATS1): 98 | KinomeScan CIT (CIT): 100 | KinomeScan PRKCI (PRKCI): 100 | KinomeScan PRKD2 (PRKD2): 94 | KinomeScan TSSK1B (TSSK1B): 97 | KinomeScan JAK1(JH1domain-catalytic) [3]: 92 | KinomeScan CSNK2A1 (CSNK2A1): 100 | KinomeScan CAMK1D (CAMK1D): 94 | KinomeScan GCN2(Kin.Dom.2,S808G) (GCN2(Kin.Dom.2,S808G)): 100 | KinomeScan NEK2 (NEK2): 100 | KinomeScan BMPR1B (BMPR1B): 80 | KinomeScan AURKC (AURKC): 77

Reference: paper PMC5078040 (Oncotarget, 2016)
